Results on 23 compounds are retold here after patent US11149037B2, “Pyrazole MAGL inhibitors” (H. Lundbeck A/S, priority 2017, dated 2021).

Holding throughout (format): biochemical
The target in assay [1] is MAGL (Mus musculus (Mouse), UniProt O35678). The experiment in a line: In vitro competitive activity-based protein profiling, mouse proteomes (brain membrane fraction or cell lysates). The note with it: mouse proteome, read-out: MAGL % inh. 1 μM (mouse). The method, then: (§1) In Vitro Competitive Activity-Based Protein Profiling.
Sequence of MAGL (Mus musculus (Mouse), UniProt O35678) (O35678 whole entry): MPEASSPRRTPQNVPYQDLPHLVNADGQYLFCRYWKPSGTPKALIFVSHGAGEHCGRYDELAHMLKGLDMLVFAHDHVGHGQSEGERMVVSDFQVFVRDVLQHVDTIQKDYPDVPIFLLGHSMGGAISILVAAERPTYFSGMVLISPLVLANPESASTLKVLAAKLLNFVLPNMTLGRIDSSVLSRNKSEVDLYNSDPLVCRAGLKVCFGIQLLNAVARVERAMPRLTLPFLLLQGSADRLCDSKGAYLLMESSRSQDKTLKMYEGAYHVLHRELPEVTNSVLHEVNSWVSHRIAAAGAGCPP
(§2) Proteomes (mouse brain membrane fraction or cell lysates for mouse assays; human prefrontal cortex or PC3 cell membrane fractions for human assays) (50 μL, 1.0 or 2.0 mg/mL total protein concentration) were preincubated with varying concentrations of inhibitors at 37° C. After 30 min, FP-Rh or JW912 or HT-01 (1.0 μL, 50 μM in DMSO) was added and the mixture was incubated for another 30 min at 37° C. Reactions were quenched with SDS loading buffer (15 μL-4×) and run on SDS-PAGE. Following gel imaging, serine hydrolase activity was determined by measuring fluorescent intensity of gel bands corresponding to MAGL and FAAH using ImageJ 1.43u software.

The target of a further assay is FAAH (Mus musculus (Mouse), UniProt O08914). The assay is described as above. The conditions noted are these: mouse proteome, read-out: FAAH % inh. 1 μM (mouse). The method, then: as §1, §2
Sequence of FAAH (O08914 whole entry): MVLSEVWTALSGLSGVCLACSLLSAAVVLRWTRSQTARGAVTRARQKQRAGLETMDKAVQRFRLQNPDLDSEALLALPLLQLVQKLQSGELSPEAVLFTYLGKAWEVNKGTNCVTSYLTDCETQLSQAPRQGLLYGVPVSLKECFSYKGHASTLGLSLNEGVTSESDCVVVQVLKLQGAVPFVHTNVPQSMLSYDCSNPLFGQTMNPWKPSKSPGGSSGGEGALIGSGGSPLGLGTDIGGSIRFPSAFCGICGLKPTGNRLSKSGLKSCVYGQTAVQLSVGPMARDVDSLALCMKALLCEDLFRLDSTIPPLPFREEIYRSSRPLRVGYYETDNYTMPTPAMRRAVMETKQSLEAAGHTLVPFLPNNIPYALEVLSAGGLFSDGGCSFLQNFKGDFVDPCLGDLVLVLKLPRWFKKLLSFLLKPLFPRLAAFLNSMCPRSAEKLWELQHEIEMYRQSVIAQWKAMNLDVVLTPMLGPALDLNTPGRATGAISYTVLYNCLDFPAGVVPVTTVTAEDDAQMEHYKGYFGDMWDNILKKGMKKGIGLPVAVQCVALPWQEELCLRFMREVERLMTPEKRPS
Assay [2] deals with MAGL (Homo sapiens (Human), UniProt Q99685). The experiment in a line: In vitro competitive activity-based protein profiling, human proteomes (prefrontal cortex or PC3 cell membrane fractions). The note with it: human proteome; for inhibition at 10 µM: read-out: MAGL % inh. (human) @ 10 μM; for inhibition at 1 µM: read-out: MAGL % inh. 1 μM (human). How it is done: as §1, §2
Sequence of MAGL (Homo sapiens (Human), UniProt Q99685) (Q99685 whole entry): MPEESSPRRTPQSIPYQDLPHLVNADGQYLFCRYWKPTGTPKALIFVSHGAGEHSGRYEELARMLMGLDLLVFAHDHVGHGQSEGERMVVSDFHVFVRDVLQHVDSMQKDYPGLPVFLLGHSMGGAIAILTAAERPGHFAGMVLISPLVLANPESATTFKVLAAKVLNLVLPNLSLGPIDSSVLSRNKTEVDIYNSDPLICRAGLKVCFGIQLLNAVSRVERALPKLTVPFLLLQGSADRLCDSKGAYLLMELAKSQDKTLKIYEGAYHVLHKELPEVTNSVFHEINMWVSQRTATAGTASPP

Take `C[C@@H]1C[C@H](N(C)Cc2ccc(Cl)c(N3CC4COCC4C3)c2)CCN1C(=O)n1ccc(NS(C)(=O)=O)n1` (stereo partly drawn) [Example 27, N-(1-((2R,4R)-4-((4-chloro-3-(tetrahydro-1H-furo[3,4-c]pyrrol-5(3H)-yl)benzyl)(methyl)amino)-2-methylpiperidine-1-carbonyl)-1H-pyrazol-3-yl)methanesulfonamide]: the inhibition at 1 µM on MAGL [1] and at FAAH was 0 to 25% in each case. For the same compound, the inhibition at 10 µM at MAGL [2] lay within 0 to 25%.

For `CC(=O)Nc1ccn(C(=O)N2C[C@H]3C[C@H](N(C)Cc4ccccc4Cl)C[C@H]3C2)n1` [Example 36, N-(1-((3aR,5s,6aS)-5-((2-Chlorobenzyl)(methyl)amino)octahydrocyclopenta[c]pyrrole-2-carbonyl)-1H-pyrazol-3-yl)acetamide], the inhibition at 1 µM at MAGL [1] and at FAAH was more than 75% each time.

Take `CC(=O)Nc1ccn(C(=O)N2C[C@H]3C[C@@H](N(C)Cc4ccccc4Cl)C[C@H]3C2)n1` [Example 37, N-(1-((3aR,5r,6aS)-5-((2-Chlorobenzyl)(methyl)amino)octahydrocyclopenta[c]pyrrole-2-carbonyl)-1H-pyrazol-3-yl)acetamide]: the inhibition at 1 µM on MAGL [1] and on FAAH was more than 75% each time.

Turning to `CS(=O)(=O)Nc1ccn(C(=O)N2CC3CN(Cc4cccc(Oc5ccc(Cl)cc5)c4)CC3C2)n1` (centres unmarked) [Example 41, N-(1-(5-(3-(4-Chlorophenoxy)benzyl)octahydropyrrolo[3,4-c]pyrrole-2-carbonyl)-1H-pyrazol-3-yl)methanesulfonamide], the inhibition at 1 µM at MAGL [1] was 0 to 25%; at FAAH, more than 75%.

Take `CC(=O)Nc1ccn(C(=O)N2CC3CN(Cc4ccc(Oc5ccc(Cl)cc5)cc4)CC3C2)n1` (centres unmarked) [Example 44, N-(1-(5-(4-(4-Chlorophenoxy)benzyl)octahydropyrrolo[3,4-c]pyrrole-2-carbonyl)-1H-pyrazol-3-yl)acetamide]: the inhibition at 1 µM at MAGL [1] and at FAAH was more than 75% each time.

For `CC(C)C(=O)Nc1ccn(C(=O)N2CCN(Cc3ccc(C(F)(F)F)cc3N3CCCC3)CC2)n1` [Example 161, N-(1-(4-(2-(Pyrrolidin-1-yl)-4-(trifluoromethyl)benzyl)piperazine-1-carbonyl)-1H-pyrazol-3-yl)isobutyramide], the inhibition at 1 µM on MAGL [1] was more than 75%; on FAAH it was 0 to 25%.

Turning to `CC(=O)Nc1ccn(C(=O)N2CC3CN(Cc4ccc(Cl)cc4)CC3C2)n1` (centres unmarked) [Example 170, N-(1-(5-(4-Chlorobenzyl)octahydropyrrolo[3,4-c]pyrrole-2-carbonyl)-1H-pyrazol-3-yl)acetamide], the results for the inhibition at 1 µM at MAGL [1] and on FAAH were more than 75% and 50 to 75%, respectively.

Regarding `CC(=O)Nc1ccn(C(=O)N2CC3CN(Cc4ccc(N5CCOCC5)c(C(F)(F)F)c4)CC3C2)n1` (centres unmarked) [Example 171, N-(1-(5-(4-Morpholino-3-(trifluoromethyl)benzyl)octahydropyrrolo[3,4-c]pyrrole-2-carbonyl)-1H-pyrazol-3-yl)acetamide], the inhibition at 1 µM is more than 75% on MAGL [1] and 50 to 75% on FAAH.

As to `CC(=O)Nc1ccn(C(=O)N2CC3CN(Cc4ccc(Cl)cc4Cl)CC3C2)n1` (centres unmarked) [Example 174, N-(1-(5-(2,4-Dichlorobenzyl)octahydropyrrolo[3,4-c]pyrrole-2-carbonyl)-1H-pyrazol-3-yl)acetamide], the figures for the inhibition at 1 µM at MAGL [1] and at FAAH were more than 75% and 50 to 75%, respectively.

Regarding `C[C@H]1CN(C(=O)n2ccc(NS(C)(=O)=O)n2)CCN1Cc1ccc(C(F)(F)F)c(N2CC[C@H](F)C2)c1` [Example 192, N-(1-((S)-4-(3-((S)-3-Fluoropyrrolidin-1-yl)-4-(trifluoromethyl)benzyl)-3-methylpiperazine-1-carbonyl)-1H-pyrazol-3-yl)methanesulfonamide], the inhibition at 1 µM at MAGL [1] and on MAGL [2] was more than 75% throughout.

Turning to `CC(=O)Nc1ccn(C(=O)N2CCC(N(C)Cc3cc(C(F)(F)F)cc(C4(C(=O)O)CCCC4)c3)CC2)n1` [Example 193, 1-(3-(((1-(3-Acetamido-1H-pyrazole-1-carbonyl)piperidin-4-yl)(methyl)amino)methyl)-5-(trifluoromethyl)phenyl)cyclopentane-1-carboxylic acid], the inhibition at 1 µM at MAGL [1] and on MAGL [2] was more than 75% each time.

As to `C[C@H]1C[C@@H](N(C)Cc2ccc(Cl)c(N3CC4COCC4C3)c2)CCN1C(=O)n1ccc(NS(C)(=O)=O)n1` (stereo partly drawn) [Example 194, N-(1-((2S,4S)-4-((4-chloro-3-(Tetrahydro-1H-furo[3,4-c]pyrrol-5(3H)-yl)benzyl)(methyl)amino)-2-methylpiperidine-1-carbonyl)-1H-pyrazol-3-yl)methanesulfonamide], the inhibition at 1 µM on MAGL [1] is 0 to 25%. At MAGL [2], the inhibition at 10 µM is 50 to 75%.

Turning to `CS(=O)(=O)Nc1ccn(C(=O)N2CCC3(CCCN3Cc3ccc(Cl)c(N4CCCC4)c3)CC2)n1` [Example 195, N-(1-(1-(4-Chloro-3-(pyrrolidin-1-yl)benzyl)-1,8-diazaspiro[4.5]decane-8-carbonyl)-1H-pyrazol-3-yl)methanesulfonamide], the inhibition at 1 µM at MAGL [1] and on MAGL [2] was more than 75% throughout.

Consider `CN(Cc1ccc(Cl)cc1N1CCC(F)CC1)C1(C)CCN(C(=O)n2ccc(NS(C)(=O)=O)n2)CC1` [Example 196, N-(1-(4-((4-Chloro-2-(4-fluoropiperidin-1-yl)benzyl)(methyl)amino)-4-methylpiperidine-1-carbonyl)-1H-pyrazol-3-yl)methanesulfonamide], for which the inhibition at 1 µM at MAGL [1] and at MAGL [2] was more than 75% each time.

As to `CN(Cc1ccc(Cl)cc1N1CCOCC1)C1(C)CCN(C(=O)n2ccc(NS(C)(=O)=O)n2)CC1` [Example 198, N-(1-(4-((4-Chloro-2-morpholinobenzyl)(methyl)amino)-4-methylpiperidine-1-carbonyl)-1H-pyrazol-3-yl)methanesulfonamide], the inhibition at 1 µM is 50 to 75% at MAGL [1] and more than 75% at MAGL [2].

For the compound `C[C@@H]1CCCN1c1cc(CN2CCN(C(=O)n3ccc(NS(C)(=O)=O)n3)C[C@@H]2C)ccc1Cl` [Example 199, N-(1-((S)-4-(4-Chloro-3-((R)-2-methylpyrrolidin-1-yl)benzyl)-3-methylpiperazine-1-carbonyl)-1H-pyrazol-3-yl)methanesulfonamide], the inhibition at 1 µM on MAGL [1] and at MAGL [2] was more than 75% each time.

For `C[C@@H]1CN(C(=O)n2ccc(NS(C)(=O)=O)n2)CCN1Cc1ccc(Cl)c(N2CCC[C@H]2C)c1` [Example 200, N-(1-((R)-4-(4-Chloro-3-((R)-2-methylpyrrolidin-1-yl)benzyl)-3-methylpiperazine-1-carbonyl)-1H-pyrazol-3-yl)methanesulfonamide], the inhibition at 1 µM at MAGL [1] and at MAGL [2] was more than 75% each time.

For `C[C@@H]1CN(C(=O)n2ccc(NS(C)(=O)=O)n2)CCN1Cc1ccc(Cl)c(N2CCC(F)(F)CC2)c1` [Example 201, (R)-N-(1-(4-(4-Chloro-3-(4,4-difluoropiperidin-1-yl)benzyl)-3-methylpiperazine-1-carbonyl)-1H-pyrazol-3-yl)methanesulfonamide], the inhibition at 1 µM at MAGL [1] and at MAGL [2] was more than 75% throughout.

Consider `C[C@@H]1CN(C(=O)n2ccc(NS(C)(=O)=O)n2)CCN1Cc1ccc(Cl)c(N2CCC(C(F)(F)F)CC2)c1` [Example 202, (R)-N-(1-(4-(4-Chloro-3-(4-(trifluoromethyl)piperidin-1-yl)benzyl)-3-methylpiperazine-1-carbonyl)-1H-pyrazol-3-yl)methanesulfonamide], for which the inhibition at 1 µM on MAGL [1] and on MAGL [2] was more than 75% each time.

In the case of `CS(=O)(=O)Nc1ccn(C(=O)N2CCC(OCc3ccc(Cl)c(N4CCC(F)CC4)c3)CC2)n1` [Example 209, N-(1-(4-((4-Chloro-3-(4-fluoropiperidin-1-yl)benzyl)oxy)piperidine-1-carbonyl)-1H-pyrazol-3-yl)methanesulfonamide], the inhibition at 1 µM on MAGL [1] and at MAGL [2] was more than 75% each time.

Take `CS(=O)(=O)Nc1ccn(C(=O)N2CC[C@H](Oc3ccc(C(F)(F)F)c(N4CCC(F)CC4)c3)[C@@H](F)C2)n1` [Example 210, N-(1-((3S,4S)-3-Fluoro-4-(3-(4-fluoropiperidin-1-yl)-4-(trifluoromethyl)phenoxy)piperidine-1-carbonyl)-1H-pyrazol-3-yl)methanesulfonamide]: the inhibition at 1 µM at MAGL [1] and at MAGL [2] was more than 75% in each case.

`C[C@H]1CN(C(=O)n2ccc(NS(C)(=O)=O)n2)CCN1Cc1cc(N2CCC(F)CC2)c(Cl)cn1` [Example 223, (S)-N-(1-(4-((5-Chloro-4-(4-fluoro-piperidin-1-yl)pyridin-2-yl)methyl)-3-methyl-piperazine-1-carbonyl)-1H-pyrazol-3-yl)methane-sulfonamide]: the inhibition at 1 µM at MAGL [1] and at MAGL [2] was more than 75% throughout.

Regarding `C[C@@H]1CN(C(=O)n2ccc(NS(C)(=O)=O)n2)CCN1Cc1ccc(Cl)c(N2CCCC2)c1` [Example 224, (R)-N-(1-(4-(4-Chloro-3-(pyrrolidin-1-yl)benzyl)-3-methyl-piperazine-1-carbonyl)-1H-pyrazol-3-yl)methane-sulfonamide], the inhibition at 1 µM on MAGL [1] and on MAGL [2] was more than 75% throughout.
